Data published in article PMC8536124 (International Journal of Molecular Sciences, 2021).
Marks after values point to notes of the source that are not given here.

Key:
[1] = Compound stability in cell culture media (TLC); conditions: 5 μM in DMEM and EMEM, 72 h
Procedure: Prior to this assay, compound stability in cell culture media was evaluated after 72 h, using a thin-layer chromatography (TLC)-based protocol, with the necessary modifications [57, 58].
The stability of the assessed compounds in the culture media was evaluated by thin layer chromatography (TLC), this representing a viable and easy to achieve technique for this specific endpoint [57, 58]. […] The solutions were incubated for 72 h, after which the medium was extracted in CHCl3. […] The plate was successively developed with I2 vapors, UV light, and bromocresol green to determine various additional spots corresponding to some decomposition byproducts.

BAK gene, RPMI = assay: Gene expression by qRT-PCR; format: cell-based, human; conditions: 1 μM, mean 2^∆∆Ct, DMSO 4.163
Source text: (§1) Apoptosis at the cellular level can be initiated through the mitochondrial intrinsic pathway, which involves the Bcl-2 family of genes that includes the anti-apoptotic Bcl-XL and Bcl-2, as well as the pro-apoptotic Bak and Bax members; the balance between the expressions of anti- and pro-apoptotic proteins ensures physiological cell death. In cancers, the alterations occurring in gene expressions due to down- or up-regulations may result in delayed apoptosis and malignant proliferation. Thus, active compounds that modify the abnormal expression of genes involved in the apoptotic process may successfully act as anticancer agents. We tested the effect of compounds 4 and 6 on the expression of anti-apoptotic (Bcl-XL and Bcl-2) and pro-apoptotic (Bak and Bax) genes (Table 4, Figure 8).
(§2) Total RNA was extracted using peqGold RNAPureTM Package (Peqlab Biotechnology GmbH, Erlangen, Germany) according to the manufacturer’s instructions, and a DS-11 spectrophotometer (DeNovix, Wilmington, DE, USA) was used to measure total concentration of RNA. Reverse transcription was performed using the Maxima® First Strand cDNA Synthesis Kit (Fermentas, St. Leon-Rot, Germany), and the mix was incubated in the Tadvanced biometra product line (Analytik Jena AG, Jena, Germany) with a thermal program of 25 °C for 10 min, 85 °C for 5 min. Quantitative real-time PCR was conducted in a Quant Studio 5 real-time PCR system, (Thermo Fisher Scientific, Inc., Waltham, MA, USA), with analysis being performed in 20 µL reactions containing Power SYBR-Green PCR Master Mix (Thermo Fisher Scientific, Inc.). Cycling conditions were: 95 °C for 10 s followed by 40 cycles of denaturing at 95 °C for 15 s, and annealing and extension at 60 °C for 1 min.

Bcl-XL gene, A375 = assay: Gene expression by qRT-PCR; format: cell-based, human; conditions: 1 μM, mean 2^∆∆Ct, DMSO 4.550
Source text: as §1, §2

Bcl-2 gene, RPMI = assay: Gene expression by qRT-PCR; format: cell-based, human; conditions: 1 μM, mean 2^∆∆Ct, DMSO 4.063
Source text: as §1, §2

Bcl-2 gene, A375 = assay: Gene expression by qRT-PCR; format: cell-based, human; conditions: 1 μM, mean 2^∆∆Ct, DMSO 2.216
Source text: as §1, §2

BAX gene, SK-Mel-28 = assay: Gene expression by qRT-PCR; format: cell-based, human; conditions: 1 μM, mean 2^∆∆Ct, DMSO 2.086
Source text: as §1, §2

BAX gene, A375 = assay: Gene expression by qRT-PCR; format: cell-based, human; conditions: 1 μM, mean 2^∆∆Ct, DMSO 4.063
Source text: as §1, §2

Bcl-2 gene, SK-Mel-28 = assay: Gene expression by qRT-PCR; format: cell-based, human; conditions: 1 μM, mean 2^∆∆Ct, DMSO 2.573
Source text: as §1, §2

BAK gene, SK-Mel-28 = assay: Gene expression by qRT-PCR; format: cell-based, human; conditions: 1 μM, mean 2^∆∆Ct, DMSO 1.383
Source text: as §1, §2

BAK gene, A375 = assay: Gene expression by qRT-PCR; format: cell-based, human; conditions: 1 μM, mean 2^∆∆Ct, DMSO 5.200
Source text: as §1, §2

BAX gene, RPMI = assay: Gene expression by qRT-PCR; format: cell-based, human; conditions: 1 μM, mean 2^∆∆Ct, DMSO 3.040
Source text: as §1, §2

Bcl-XL gene, SK-Mel-28 = assay: Gene expression by qRT-PCR; format: cell-based, human; conditions: 1 μM, mean 2^∆∆Ct, DMSO 4.730
Source text: as §1, §2

chorioallantoic membrane = assay: HET-CAM irritation assay; conditions: for Irritation Score: 300 µL, 5 min, test compounds 1 µM, scale 0 to 21; for Type of Effect: Luepke scale
Source text: In this assay, the irritation potential may range from 0 to 21, with 0 being non-irritant and 21 being the most irritant. […] The irritation score was established according to Luepke scale: 0–0.9 indicates non-irritant, 1–4.9 indicates weakly irritant, 5–8.9 indicates moderately irritant, while 9–21 means strongly irritant (Table 6) [88, 89].
The in vivo Hen’s Egg Chorioallantoic Membrane Test (HET-CAM) assay determines a potential irritant effect on the vascular plexus of the chorioallantoic membrane [94]. The HET-CAM method was carried out following ICCVAM recommendations published in November 2016 in Appendix G and adapted to our conditions [88, 95, 96]. Thus, a volume of 300 µL of control or test solution was applied and the modifications produced at the CAM level were monitored by means of stereomicroscopy (Discovery 8 Stereomicroscope, Zeiss), registering significant images (Axio CAM 105 color, Zeiss), before application after 5 min of contact with the samples. All images were processed using Zeiss ZEN software, Gimp 2.8, and ImageJ software.
Negative control was represented by distilled water and solvent control DMSO 0.5%, and positive control by sodium lauryl sulphate (SLS) 0.5% in distillate water. The test substances were tested in concentrations of 1 µM.
Finally, the following reactions were: hemorrhage—H (blood vessel bleeding), vascular lysis—L (disintegration of blood vessels), coagulation—C (intra- or extra-vascular protein denaturizing). A variety of analysis methods may be used to assess irritancy potential of test substances. One analysis method that has been used extensively is an irritation score (IS). The formula used to generate an IS value is:(1) IS=5×301−Sec H/300+7×300−Sec L/300+9×301−Sec C/300 where: H = hemorrhage; L = vessel lysis; C = coagulation; hemorrhage time (Sec H) = onset of hemorrhage reactions on CAM (in seconds); lysis time (Sec L) = onset of vessel lysis on CAM (in seconds); coagulation time (Sec C) = onset of coagulation formation on CAM (in seconds). Means values are obtained. […] The IS values range on a scale between 0 and 21.

Bcl-XL gene, RPMI = assay: Gene expression by qRT-PCR; format: cell-based, human; conditions: 1 μM, mean 2^∆∆Ct, DMSO 18.563
Source text: as §1, §2

| Structure (SMILES) | stability in cell culture media (TLC) [1] | Expression of BAK gene, Mean (BAK gene, RPMI) | Expression of Bcl-XL gene, Mean (Bcl-XL gene, A375) | Expression of Bcl-2 gene, Mean (Bcl-2 gene, RPMI) | Expression of Bcl-2 gene, Mean (Bcl-2 gene, A375) | Expression of BAX gene, Mean (BAX gene, SK-Mel-28) | Expression of BAX gene, Mean (BAX gene, A375) | Expression of Bcl-2 gene, Mean (Bcl-2 gene, SK-Mel-28) | Expression of BAK gene, Mean (BAK gene, SK-Mel-28) | Expression of BAK gene, Mean (BAK gene, A375) | Expression of BAX gene, Mean (BAX gene, RPMI) | Expression of Bcl-XL gene, Mean (Bcl-XL gene, SK-Mel-28) | Irritation Score (chorioallantoic membrane) | Type of Effect (chorioallantoic membrane) | Expression of Bcl-XL gene, Mean (Bcl-XL gene, RPMI) |
| --- | --- | --- | --- | --- | --- | --- | --- | --- | --- | --- | --- | --- | --- | --- | --- |
| CCN1CCN(C(=O)[C@]23CC[C@@H](C)[C@H](C)[C@H]2C2=CC[C@@H]4[C@@]5(C)CCC(=O)C(C)(C)[C@@H]5CC[C@@]4(C)[C@]2(C)CC3)CC1 [Compound 4, N-(3-oxo-ursan-12-en-28-oyl)-ethylpiperazine] | no signs of decomposition | 156.243 *** | 0.500 * | 1.483 * | 0.7366 ** | 0.023 *** | 0.270 *** | 0.083 * | 101.820 ** | 0.706 *** | 0.460 ** | 0.086 *** | 0 | Non-irritant | – |
| CCN1CCN(C(=O)[C@]23CCC(C)(C)C[C@H]2C2=CC[C@@H]4[C@@]5(C)C/C(=C/c6cccnc6)C(=O)C(C)(C)[C@@H]5CC[C@@]4(C)[C@]2(C)CC3)CC1 [Compound 6] | no signs of decomposition | 11.853 ** | 0.300 | 0.236 *** | 1.166 | 0.140 *** | 0.590 *** | 0.083 ** | 91.283 *** | 0.516 *** | 0.640 ** | 0.003 *** | 0 | Non-irritant | 1.050 * |
